Data published in PMC10933966, “In Vitro and In Silico of Cholinesterases Inhibition and In Vitro and In Vivo Anti-Melanoma Activity Investigations of Extracts Obtained from Selected Berberis Species” (Molecules, 2024).
Read-outs that look alike come from different tables or passages of the source.

Legend:
[1] = ref PubChem; cited from earlier work
[2] = target: T1, acetylcholinesterase (Homo sapiens, UniProt P22303); format: biochemical; conditions: alkaloid standards; 15 min at 37 °C, pH 7.8
T1 construct: purchased Sigma-Aldrich (St. Louis, MO, USA)
Procedure: (§1) All experiments were repeated three times.
S1. Samples preparation for determination of acetylcholinesterase inhibitory activity A stock solutions of reagents were prepared by dissolving of acetylcholinesterase at con-centrations 200 U/mL or 2 U/mL, acetylthiocholine iodide at concentration 0.0125 M and 5′- dithiobis-(2-nitrobenzoic acid) at concentration 0.00167 M in phosphate buffer at pH 7.8.
Samples for determination of acetylcholinesterase inhibitory activity were obtained by mixing of 50 µL of acetylthiocholine iodide, 50 µL of 5′-dithiobis-(2-nitrobenzoic acid), 50 µL of […]
as §1
All experiments were performed in triplicates.

[3] = target: T2, butyrylcholinesterase (Homo sapiens, UniProt P06276); experiment: Butyrylcholinesterase inhibition, Ellman method with HPLC-DAD; format: biochemical; conditions: alkaloid standards; 15 min at 37 °C, pH 7.8
T2 construct: purchased Sigma-Aldrich (St. Louis, MO, USA)

[4] = target: T1, acetylcholinesterase; experiment: Kinetic study of acetylcholinesterase inhibition (Lineweaver-Burk plots and replots); format: biochemical; conditions: for type of acetylcholinesterase inhibition: Lineweaver-Burk plots
Procedure: Lineweaver–Burk and Dixon plots were used for the determination of the type of inhibition and inhibition constants (Ki value) of these alkaloids. […] The Ki value was estimated from the replots of the slope of the individual Lineweaver–Burk plots versus the inhibitor concentrations (Figure 5B). […] The type of acetylcholinesterase inhibition and Ki value was determined for palmatine by the same method.

[5] = target: T2, butyrylcholinesterase; conditions: cited from earlier work
[6] = target: T1, acetylcholinesterase; conditions: cited from earlier work
[7] = target: T1, acetylcholinesterase; conditions: previously reported; cited from earlier work
[8] = target: T2, butyrylcholinesterase; conditions: read-out: IC50 butyrylcholinesterase; alkaloids isolated from Berberis vulgaris root bark; cited from earlier work
[9] = tested on: leukemic (Jurkat, MOLT-4), colon (HT-29), cervix (HeLa), breast (MCF-7) cancer cells; conditions: MOLT-4, HT-29, HeLa, read-out: IC50 values, proliferation and viability; cited from earlier work
[10] = tested on: human melanoma cell line (A375); experiment: MTT cell viability, melanoma cell line A375; format: cell-based; conditions: 24 h incubation
Procedure: (§2) The MTT assay, which measures the activity of mitochondrial metabolism, was used for the determination of the influence of alkaloid standards on cancer cell viability.
(§3) For the evaluation of the effect of Berberis species, extracts against normal human skin fibroblast cells (WS1) were used. Both cell lines were received from the American Type Culture Collection (ATCC; Manassas, VA, USA). A375 and WS1 cells were cultured in Dulbecco’s Modified Eagle’s Medium (DMEM) (Sigma Aldrich, St. Louis, MO, USA). The procedure used in investigations of cell viability was described previously. Inactivated fetal bovine serum, penicillin, and streptomycin were added to cells maintained in a CO2 atmosphere at 37 °C. The suspension of cells was applied to a 96-well plate and incubated for 24 h. Next, the medium was removed from the wells, and Berberis species extracts or alkaloid standards were added to the wells. After incubation, MTT working solution was added to each well, and the plate was again incubated for 3 h. Subsequently, an SDS solution was added, and the concentration of the dissolved formazan was measured (for details, see Section S3. Procedure for investigation of cell viability). For the calculation of IC50 values obtained for the plant extracts and alkaloid standards, the IC50 calculator (https://www.aatbio.com/tools/ic50-calculator, accessed on 16 January 2024) was used.
S1. […]

[11] = tested on: human skin fibroblasts (WS1 cell line); experiment: MTT cell viability, skin fibroblasts WS1; format: cell-based
Procedure: as §2, §3
S1. […]

T1 sequence (P22303 32-614, species assumed): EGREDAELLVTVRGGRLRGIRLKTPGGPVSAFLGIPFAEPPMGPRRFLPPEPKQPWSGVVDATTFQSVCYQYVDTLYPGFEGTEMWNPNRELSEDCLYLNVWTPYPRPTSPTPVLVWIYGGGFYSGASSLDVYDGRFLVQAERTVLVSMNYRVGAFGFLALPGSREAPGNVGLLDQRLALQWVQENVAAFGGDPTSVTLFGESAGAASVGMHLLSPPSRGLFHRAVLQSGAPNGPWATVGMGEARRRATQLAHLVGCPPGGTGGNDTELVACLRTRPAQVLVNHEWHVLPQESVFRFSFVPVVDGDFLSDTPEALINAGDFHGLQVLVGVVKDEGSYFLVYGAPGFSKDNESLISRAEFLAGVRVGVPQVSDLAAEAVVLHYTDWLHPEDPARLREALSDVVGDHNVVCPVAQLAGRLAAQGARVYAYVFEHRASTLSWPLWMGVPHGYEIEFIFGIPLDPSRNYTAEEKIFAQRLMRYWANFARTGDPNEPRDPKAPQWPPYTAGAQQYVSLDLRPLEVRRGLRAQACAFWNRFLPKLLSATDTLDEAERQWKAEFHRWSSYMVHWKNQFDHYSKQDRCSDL
T2 sequence (P06276 29-602): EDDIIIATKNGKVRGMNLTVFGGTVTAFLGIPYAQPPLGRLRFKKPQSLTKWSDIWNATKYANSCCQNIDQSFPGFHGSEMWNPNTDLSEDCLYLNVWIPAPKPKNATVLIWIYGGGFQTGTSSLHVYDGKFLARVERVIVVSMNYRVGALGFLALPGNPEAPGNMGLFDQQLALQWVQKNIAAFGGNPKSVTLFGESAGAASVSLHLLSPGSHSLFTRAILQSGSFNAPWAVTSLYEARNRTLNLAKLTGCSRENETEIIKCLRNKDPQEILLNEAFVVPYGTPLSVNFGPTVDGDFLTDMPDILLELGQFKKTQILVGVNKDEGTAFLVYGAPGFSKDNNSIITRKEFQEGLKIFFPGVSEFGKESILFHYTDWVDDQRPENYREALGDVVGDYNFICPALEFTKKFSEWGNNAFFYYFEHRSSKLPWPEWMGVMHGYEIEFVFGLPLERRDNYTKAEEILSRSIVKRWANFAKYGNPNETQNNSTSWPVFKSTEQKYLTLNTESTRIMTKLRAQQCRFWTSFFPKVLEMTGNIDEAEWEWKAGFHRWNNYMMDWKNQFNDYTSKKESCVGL

Row | Compound | Hydrogen bond acceptor count [1] | Hydrogen bond donor count [1] | Log P [1] | Polar surface area [1] | further results
1 | C[n+]1cc2c3c(ccc2c2ccc4cc5c(cc4c21)OCO5)OCO3 [Sanguinarine, sanguinarine] | 4 | 0 | 4.4 | 40.8 Å² | –
2 | COc1cc2c(cc1OC)-c1cc3ccc(OC)c(OC)c3c[n+]1CC2 [Palmatine, palmatine] | 4 | 0 | 3.7 | 40.8 Å² | IC50 [2]: 29.2 ± 1.59 µM; IC50 Values Acetylcholinesterase [2]: 10.27 µg/mL; IC50 [3]: 189 ± 42.5 µM; IC50 Values Butyrylcholinesterase [3]: 66.74 µg/mL; type of acetylcholinesterase inhibition [4]: mixed-type; Ki ([4]; replot of Lineweaver-Burk slopes vs inhibitor concentration, substrate acetylthiocholine iodide): 17 µM; IC50 butyrylcholinesterase [5]: 116.7 µg/mL; IC50 acetylcholinesterase [6]: 7.4 µg/mL; mode of acetylcholinesterase inhibition [7]: mixed mode
3 | CN1CCc2cc3c(cc2C(=O)Cc2ccc4c(c2C1)OCO4)OCO3 [Protopine, protopine] | 6 | 0 | 2.8 | 57.2 Å² | –
4 | COc1cc2c3cc1Oc1c(O)c(OC)cc4c1[C@H](Cc1ccc(cc1)Oc1cc(ccc1O)C[C@H]3N(C)CC2)N(C)CC4 [aromoline] | – | – | – | – | IC50 [8]: 0.82 µM
5 | Bersavine | – | – | – | – | IC50 [9]: 8.1 to 11 µM
6 | N.N.[Cl][Pt][Cl] [Cisplatin, cisplatin] | – | – | – | – | IC50 A375 [10]: 23.8 µg/mL; IC50 WS1 ([11]; human skin fibroblast cell line WS1, MTT, 24 h incubation): 44.07 µg/mL
7 | COc1ccc2c(c[n+](C)c3c4cc5c(cc4ccc23)OCO5)c1OC [Chelerythrine, chelerythrine] | 4 | 0 | 4.6 | 40.8 Å² | –
8 | COc1ccc2cc3[n+](cc2c1OC)CCc1cc2c(cc1-3)OCO2 [Berberine, berberine] | 4 | 0 | 3.6 | 40.8 Å² | type of acetylcholinesterase inhibition [4]: noncompetitive; IC50 ([11]; Homo sapiens, WS1, 24 h, read-out: IC50 WS1): 95.3 µg/mL; mode of acetylcholinesterase inhibition [7]: non-competitive
